The values that follow are results of earlier work, collected in patent US10975131B2, “Factor H-Fc immunotheraphy” (priority 2015, dated 2021).

The subject of the data set is N. gonorrhoeae strains.

Where two headings read alike, the source gives them in different places.

For the compound `CO/N=C(\C(=O)N[C@@H]1C(=O)N2C(C(=O)O)=C(CSc3nc(=O)c(=O)[nH]n3C)CS[C@H]12)c1csc(N)n1` [Ceftriaxone, ceftriaxone], the “Ceftriaxone MIC” value (strain CTXr (Spain), resistant) is on record as 2 (resistant) ug/ml; the “Ceftriaxone MIC” value (strain FA1090) was 0.004 µg/mL; the “Ceftriaxone MIC” value (strain H041, resistant) is recorded as 2-4 (resistant) ug/ml; the “Ceftriaxone MIC” value (strain MS11) is 0.032 µg/mL; the “Ceftriaxone MIC” value (strain NJ-1, agar dilution) is 0.023 µg/mL; the “Ceftriaxone MIC” value (strain NJ-11, agar dilution) is 0.047 µg/mL. Further, the “Ceftriaxone MIC” value runs as follows: (strain NJ-15, agar dilution) 0.047 µg/mL; (strain NJ-19, agar dilution) 0.032 µg/mL; (strain NJ-26, agar dilution) 0.032 µg/mL; (strain NJ-27, agar dilution) 0.064 µg/mL; (strain NJ-36, agar dilution) 0.032 µg/mL; (strain NJ-44, agar dilution, elevated MIC to CRO) 0.125 (elevated ug/ml. The “Ceftriaxone MIC” value was 0.125 (elevated ug/ml (strain NJ-48, agar dilution, elevated MIC to CRO) and 0.380 (resistant) ug/ml (strain NJ-60, agar dilution, resistant).
